From PMC7804268, “Engineering and elucidation of the lipoinitiation process in nonribosomal peptide biosynthesis” (Nature Communications, 2021)

Target: T1, RzmA-Cs (Mycetohabitans rhizoxinica, UniProt E5ATN9, R148A)
T1 construct: gene RBRH_01504; excised starter condensation (Cs) domain, residues 1-431, pET28a, E. coli BL21(DE3), N-terminal His6 tag removed by thrombin, size-exclusion purified
T1 sequence (E5ATN9 1-431 R148A): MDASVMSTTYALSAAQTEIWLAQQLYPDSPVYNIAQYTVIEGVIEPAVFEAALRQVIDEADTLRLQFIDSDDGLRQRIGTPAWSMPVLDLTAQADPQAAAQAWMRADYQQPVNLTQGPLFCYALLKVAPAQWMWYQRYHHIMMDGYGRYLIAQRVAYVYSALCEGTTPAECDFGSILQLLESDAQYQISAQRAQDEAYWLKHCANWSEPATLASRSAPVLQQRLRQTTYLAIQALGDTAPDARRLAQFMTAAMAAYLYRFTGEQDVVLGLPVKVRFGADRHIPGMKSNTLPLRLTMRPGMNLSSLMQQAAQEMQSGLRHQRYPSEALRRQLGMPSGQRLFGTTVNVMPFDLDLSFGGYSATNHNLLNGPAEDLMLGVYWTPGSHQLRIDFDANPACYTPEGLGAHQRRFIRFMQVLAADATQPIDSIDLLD
Experiment: isothermal titration calorimetry
Type: binding

Work on `CCCCCCCC(=O)SCCNC(=O)CCNC(=O)[C@H](O)C(C)(C)COP(=O)(O)OP(=O)(O)OC[C@H]1O[C@@H](n2cnc3c(N)ncnc32)[C@H](O)[C@@H]1OP(=O)(O)O` [3d, C8-CoA] yielded a Kd of roughly 300 nM.
